Entries after “also recorded” stand apart in the source; their conditions may differ. Bridge positions count the residues as written; N and C are the ends. Peptide text beside a SMILES is read from it.
How the values were obtained:
C. albicans 53264 [1] = assay: Systemic MDR candidiasis model, survival and renal fungal burden; assay type: in vivo, CD-1 mice; details: for survival (log-rank): 1.8 × 10^7 blastospores i.v., 40 days
Experimental: (as in Fig. 3d). CD-1, rather than BALB/c mice were used in the C. albicans 53264 challenge studies as this mouse strain was employed by Wiederhold et al. in the assessment of caspofungin efficacy against this pathogen. […] Fungal burdens were determined in kidneys of long term survivors in the RTD-1, Caspo, and Fluco-treated cohorts (euthanized at day 40) and from moribund mice from the survival study in Fig. 7a.
(§1) BALB/c female mice (7–8 weeks old) and CD-1 female mice (4–5 weeks old) were obtained from Charles River Laboratories and allocated randomly in groups of five mice per cage. Mice were maintained on a 12 h light/dark cycle in thermostatically controlled rooms for the duration of the experiment. C. albicans inocula were prepared fresh each day from saturated cultures grown overnight in YPD medium, washed in sterile PBS, and fungi were counted with hemocytometer. Stock suspensions were prepared in sterile PBS. BALB/c mice were challenged with 2 × 10^6 CFU/ml wild-type C. albicans reference strain SC5314, while CD-1 mice were challenged with 1.8 × 10^7 CFU/ml (0.15–0.2 ml) C. albicans clinical isolate 53264 by i.v. injection into the lateral caudal tail vein using a 28 G 1/2 inch needle. Animals were treated by i.v., s.c., or i.p. routes immediately post-infection (p.i.) or 24 h p.i. with sterile saline (control), RTD-1, fluconazole, or caspofungin administered at the concentrations indicated in a 0.200 ml. Mice were weighted and monitored daily for general clinical condition. Mice were euthanized as approved by the USC IACUC and in compliance with the National Institutes of Health Guide for the Care and Use of Laboratory Animals. All experiments were repeated at least three times.
(§2) To assess systemic fungal clearance, renal fungal burden was determined. Mice were euthanized at times indicated, and both kidneys were weighed, homogenized in 5 ml of sterile PBS, and serial dilutions of homogenate were plated on YPD agar plates and incubated at 30 °C for 2 days. CFU per gram of kidney was calculated.

[2] = test system: C. albicans SC5314 biofilms; assay: Biofilm XTT metabolic assay; assay type: cell-based
Experimental: (§3) The antifungal activities of RTD-1, caspofungin and fluconazole were evaluated against biofilms of C. albicans SC5314 and 53264 essentially as described by Pierce et al.[67]. Briefly, biofilms established for 0 h (preadhesion), 2 h (adherent), or 24 h (mature) were developed by adding 1 × 10^5 yeast cells in 50 or 100 µl of RPMI-1640 to wells of flat-bottom 96-well microtiter plates (Costar, Corning, NY). Fifty or 100 µl aliquots of serial 2-fold dilutions of peptide or antifungal drugs were added to wells in triplicate and incubated for 24 h or 48 h prior to analysis of biofilm metabolic activities. Concentrations of reagents used were as follows: RTD-1 - 0.09 – 100 µg/ml (0.05–48 µM), Fluco – 1–250 µg/ml (3.3–816.3 µM); Caspo- 0.003–8 µg/ml ([…]–7.3 µM). Analysis of the effect of each agent on Candida biofilms was performed using an XTT colorimetric assay. One hundred µl of 1 µM XTT/menadione added to each biofilm well, plates were incubated in the dark for 3 h at 37 °C, and 80 µl of supernatant was transferred to a new 96-well flat-bottom microtiter plate (Greiner Bio-one, Monroe, NC). Absorbance was measured at 490 nm on a SpectraMax® i3x (Molecular Devices). Readings were plotted as average of triplicates after subtracting the corresponding values for negative controls (XTT/menadione only).

C. albicans SC5314 = assay: Systemic candidiasis model, survival and renal fungal burden; assay type: in vivo, BALB/c mice
Experimental: The efficacy of RTD-1 in vivo was evaluated in an established model of systemic candidiasis using C. albicans SC5314. Both immunocompetent and immunosuppressed mouse models are employed in preclinical studies of systemic candidiasis. Since many of our preliminary studies employed the […] model, we conducted efficacy studies with RTD-1 and reference antifungal drugs in immunocompetent BALB/c mice. Mice were challenged i.v. with 3 × 10^5 blastospores at T = 0, which rapidly produces disseminated candidiasis and colonizes major organs in a manner resembling systemic candidiasis in humans. […] We analyzed the effect of a single 5 mg/kg dose of RTD-1 administered i.v., s.c., or i.p. immediately after i.v. fungal challenge, with i.p. saline as vehicle control. Fluco and Caspo, administered i.p. at 5 mg/kg, were used as drug comparators. […] In subsequent studies, antifungal agents were administered i.p. to circumvent potentially confounding effects resulting from treatment by the same route as infection, which was i.v. in all experiments.
as §1, §2

C. albicans 43001 = assay: Kinetics of candidacidal activity, liquid suspension assay; assay type: cell-based; details: PIPES-glucose buffer
Experimental: (§4) Kinetics of RTD-1 candidacidal activity was determined at peptide concentrations ranging from 0 to 10 µg/ml using a liquid suspension assay described previously. Overnight cultures of C. albicans 53264 or 43001 were grown to mid-log phase in 5% yeast peptone dextrose broth (YPD) (Difco) at 30 °C. Approximately 2 × 10^6 CFU/ml were incubated with 0, 0.3, 1, 3 and 10 µg/ml RTD-1 or 10 µg/ml caspofungin, suspended in 10 mM PIPES, pH 7.4, plus 5 mM glucose (PG), in 96-well plates with shaking at 60 RPM at 37 °C. At timed intervals, samples were diluted 1:1000 fold into PG buffer and aliquots plated onto YPD agar plates (TekNova), and surviving organisms quantified by colony counting after incubation for 24 h at 30 °C.

C. albicans 53264 [3] = assay: as above; assay type: cell-based; details: PIPES-glucose buffer
Experimental: as §4

[4] = cited from earlier work
[5] = test system: host and fungal proteases; details: cited from earlier work
[6] = test system: C. albicans 53264 biofilms; assay: Biofilm XTT metabolic assay; assay type: cell-based; details: pre-adhesion, 2 h adherent and 24 h mature biofilms
Experimental: as §3

[7] = 5 mg/kg i.p. once per day for 7 days beginning 24 h p.i.
[8] = 5 mg/kg i.p. once a day for 7 days, first dose 24 h after infection, 30 d
[9] = 3 µg/ml, by 30 min of incubation

Compound: CC[C@H](C)C[C@H](C)CCCCCCCCC(=O)N[C@H]1C[C@@H](O)[C@@H](NCCN)NC(=O)[C@@H]2[C@@H](O)CCN2C(=O)[C@H]([C@H](O)CCN)NC(=O)[C@H]([C@H](O)[C@@H](O)c2ccc(O)cc2)NC(=O)[C@@H]2C[C@@H](O)CN2C(=O)[C@H]([C@@H](C)O)NC1=O [Caspo, caspofungin]
- survival (log-rank) (C. albicans 53264 [1]; [7]): significantly (P < 0.0001) improved survival
- biofilm inhibition (XTT) ([2]; 2- and 24 h biofilms): reduced at concentrations >2 µg/ml
- survival (C. albicans SC5314; [8]): markedly enhanced survival
- survival (C. albicans SC5314; single 5 mg/kg dose at T = 0 (RTD-1 i.v., s.c. or i.p.; Fluco, Caspo i.p.), 3 × 10^5 blastospores i.v., 30 days, vs saline, 5 mg/kg): effective in enhancing survival; also recorded: superior to RTD-1 and Fluco treatment
- fungicidal activity, time-kill (C. albicans 43001; 10 µg/ml, 0–60 min): very little activity
- fungicidal activity, time-kill (C. albicans 53264 [3]; 10 µg/ml, 0–60 min): very little activity

Compound: CC[C@H](C)[C@@H]1NC(=O)[C@@H]2CSSC[C@H](NC(=O)[C@H](CCCNC(=N)N)NC(=O)[C@@H]3CSSC[C@H](NC1=O)C(=O)N[C@@H]([C@@H](C)O)C(=O)N[C@@H](CCCNC(=N)N)C(=O)NCC(=O)N[C@@H](Cc1ccccc1)C(=O)N3)C(=O)N[C@@H](CC(C)C)C(=O)N[C@H]1CSSC[C@H](NC(=O)[C@H](C(C)C)NC(=O)CNC(=O)[C@H](CCCNC(=N)N)NC(=O)[C@H](CCCNC(=N)N)NC1=O)C(=O)N[C@@H](CCCNC(=N)N)C(=O)N2 [RTD-1, Rhesus theta (θ) defensin-1] (cyclo(GFCRCLCRRGVCRCICTR); disulfide 3-16, 5-14, 7-12 (inferred); ring closure inferred)
- immunogenicity [4]: non-immunogenic
- survival endpoint analysis (χ2) at day 40 p.i. (C. albicans 53264 [1]; [7]): superior to Fluco (P = 0.01) and Caspo (P = 0.001)
- survival (log-rank) (C. albicans 53264 [1]; [7]): significantly (P < 0.0001) improved survival; also recorded: superior to Caspo (P = 0.029) but not Fluco
- kidney fungal burden (CFU/g) (C. albicans 53264 [1]; long term survivors, day 40, vs moribund saline controls): significantly (P = 4.1 × 10^−5) reduced fungal burden
- stability to fungal proteases [5]: highly stable
- stability to host proteases [5]: highly stable
- biofilm inhibition (XTT) ([2]; 2- and 24 h biofilms): much more effective than Fluco
- biofilm inhibition (XTT) ([2]; pre-adhesion, 2 h adherent and 24 h mature biofilms): inhibited biofilms of drug sensitive SC5314 at each time point, but less effectively than Caspo
- biofilm inhibition (XTT) [6]: inhibited biofilm formation
- survival (C. albicans SC5314; [8]): markedly enhanced survival; also recorded: more effective in enhancing survival than Fluco, and was nearly equivalent to Caspo
- kidneys with no culturable organisms detected (C. albicans SC5314; long term survivors, day 30 p.i.): 50%
- kidney fungal burden (CFU/g) (C. albicans SC5314; long term survivors, day 30 p.i., treated i.p. at T = 0, vs moribund saline treated mice): markedly reduced kidney fungal burden; also recorded: substantially more effective than treatment with Fluco
- survival (C. albicans SC5314; single 5 mg/kg dose at T = 0 (RTD-1 i.v., s.c. or i.p.; Fluco, Caspo i.p.), 3 × 10^5 blastospores i.v., 30 days, vs saline): significantly enhanced survival regardless of the routes of administration
- kidney fungal burden (CFU/g) (C. albicans SC5314; single 5 mg/kg i.p. at T = 0, by day 3 p.i., vs saline): markedly reduced fungal burden
- survival (C. albicans SC5314; single i.p. 5 mg/kg, administration delayed 24 h or 72 h (data not shown)): no survival enhancement
- survival (C. albicans SC5314; single i.p. 5 mg/kg, treatment delayed 1, 3 or 6 h after infection): enhanced survival compared to saline control
- survival (C. albicans SC5314; single i.p. dose 20 mg/kg at T = 0, vs saline): significantly accelerates death
- survival (C. albicans SC5314; single i.p. dose 10 and 20 mg/kg at T = 0, compared with 5 mg/kg Fluco): less effective than Fluco
- survival (C. albicans SC5314; single i.p. dose at T = 0, all doses of 0.1–20 mg/kg except 0.1 and 20 mg/kg, vs saline): enhanced survival significantly
- fungicidal activity, time-kill (C. albicans 43001; [9]): sterilized the incubation mixture
- fungicidal activity, time-kill (C. albicans 53264 [3]; [9]): sterilized the incubation mixture

— publication PMC6858451, “Rhesus Theta Defensin 1 Promotes Long Term Survival in Systemic Candidiasis by Host Directed Mechanisms” (Scientific Reports, 2019)
